Assay results from ChEMBL document CHEMBL1201862, “PubChem BioAssay data set” (2004).
Activity calls are given as the source filed them.

How the values were obtained:
Cytochrome P450 2C19 = Cytochrome P450 2C19 (Homo sapiens, UniProt P33261); test: Cytochrome panel assay with activity outcomes. Panel member name: p450-cyp2c19 Compounds with AC50 equal or less than 10 uM are considered active; format: functional; conditions: read-out: AC50
Coagulation factor XII = target: T1, Coagulation factor XII (Homo sapiens, UniProt P00748); format: functional;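 also: activated factor XIIa alpha cleaving a fluorogenic AMC peptide substrate; inhibitor potency from loss of enzyme activity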
T1 sequence (P00748 whole entry): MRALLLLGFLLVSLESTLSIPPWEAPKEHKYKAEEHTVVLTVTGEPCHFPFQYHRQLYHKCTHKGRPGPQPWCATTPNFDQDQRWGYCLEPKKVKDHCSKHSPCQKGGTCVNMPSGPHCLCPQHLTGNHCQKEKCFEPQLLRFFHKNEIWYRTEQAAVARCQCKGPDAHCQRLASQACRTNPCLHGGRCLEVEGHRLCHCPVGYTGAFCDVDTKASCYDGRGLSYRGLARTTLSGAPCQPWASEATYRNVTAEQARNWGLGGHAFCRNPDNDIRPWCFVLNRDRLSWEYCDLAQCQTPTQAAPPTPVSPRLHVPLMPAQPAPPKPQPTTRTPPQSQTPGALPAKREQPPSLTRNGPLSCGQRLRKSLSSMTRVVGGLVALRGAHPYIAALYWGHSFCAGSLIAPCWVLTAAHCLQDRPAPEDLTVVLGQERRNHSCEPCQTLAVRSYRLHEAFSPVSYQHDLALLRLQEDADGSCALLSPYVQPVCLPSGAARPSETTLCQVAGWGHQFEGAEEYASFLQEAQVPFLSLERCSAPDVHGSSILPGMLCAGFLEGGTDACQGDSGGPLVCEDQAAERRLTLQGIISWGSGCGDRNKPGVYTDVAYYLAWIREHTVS

Cytochrome P450 1A2 = target: T2, Cytochrome P450 1A2 (Homo sapiens, UniProt P05177);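 also: PubChem cytochrome P450 panel assay, CYP1A2 panel member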
T2 sequence (P05177 whole entry): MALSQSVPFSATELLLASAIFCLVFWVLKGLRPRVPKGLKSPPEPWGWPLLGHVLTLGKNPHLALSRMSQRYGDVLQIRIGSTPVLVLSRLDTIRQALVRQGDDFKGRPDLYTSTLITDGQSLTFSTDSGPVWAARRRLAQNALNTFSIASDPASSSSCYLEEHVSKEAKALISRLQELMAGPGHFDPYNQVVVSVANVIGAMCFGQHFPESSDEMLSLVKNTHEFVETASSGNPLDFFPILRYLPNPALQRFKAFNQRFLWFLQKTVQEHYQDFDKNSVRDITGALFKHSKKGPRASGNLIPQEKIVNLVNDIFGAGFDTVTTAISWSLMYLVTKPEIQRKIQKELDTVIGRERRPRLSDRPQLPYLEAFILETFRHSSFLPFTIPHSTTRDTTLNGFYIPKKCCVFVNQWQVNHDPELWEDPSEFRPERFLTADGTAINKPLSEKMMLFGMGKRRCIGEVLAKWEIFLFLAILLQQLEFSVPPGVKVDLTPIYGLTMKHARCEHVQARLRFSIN

Vero [1] = test: cells; format: functional; conditions: Chlorocebus sabaeus
[2] = HEp-2 cell cytotoxicity, dose response, cytotoxicity control for RSV inhibitor project, HTS (AID 2410); format: functional; conditions: human respiratory syncytial virus
[3] = inhibitors of firefly luciferase expression or activity, dose response, H4 neuroglioma cells, luminescence (AID 1990); format: functional, cell-based
[4] = inhibitors of SNCA 5'UTR-driven reporter translation, confirmation, H4 neuroglioma cells, luminescence (AID 1988); format: functional, cell-based
[5] = Luminescence Cell-Based Dose Response HTS to Identify Inhibitors of 5'UTR Stem-Loop Driven Prion Protein mRNA Translation in H4 Neuroglioblastoma Cells. [Related pubchem assays: 1827 (Project Summary), 1813 (Primary HTS)]; format: functional
Vero [6] = test: cells; format: functional, cell-based; conditions: Chlorocebus sabaeus
[7] = target: Beta-2 adrenergic receptor (Homo sapiens, UniProt P07550); test: beta2AR agonists driving receptor internalization, dose response, cell-based, FAP fluorogen, flow cytometry, cherry pick 1 (AID 588763); format: functional
Sequence of Beta-2 adrenergic receptor (P07550 whole entry): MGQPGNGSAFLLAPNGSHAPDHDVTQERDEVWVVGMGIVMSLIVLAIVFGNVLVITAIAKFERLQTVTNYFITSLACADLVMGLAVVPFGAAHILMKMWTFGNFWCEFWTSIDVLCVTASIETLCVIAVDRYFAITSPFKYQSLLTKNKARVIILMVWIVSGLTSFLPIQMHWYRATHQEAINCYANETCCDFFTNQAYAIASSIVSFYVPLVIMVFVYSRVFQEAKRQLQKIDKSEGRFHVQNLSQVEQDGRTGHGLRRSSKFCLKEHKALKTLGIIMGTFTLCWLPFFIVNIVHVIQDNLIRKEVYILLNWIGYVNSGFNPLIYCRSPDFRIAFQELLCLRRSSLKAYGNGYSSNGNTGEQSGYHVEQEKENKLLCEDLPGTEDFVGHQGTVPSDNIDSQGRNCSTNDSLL

[8] = C. albicans growth with fluconazole, confirmation, fluorescence, retest (AID 2467); format: functional, cell-based
INS1 = test: beta cell apoptosis inhibitors, cytokine rescue, dose response, luminescence, retest (AID 449756); format: functional, cell-based; conditions: Rattus norvegicus;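 also: cell death triggered by IL-1 beta plus TNF-alpha plus IFN-gamma mixture; protective hits raise ATP signal compared with cytokine alone wells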
[9] = target: T3, High affinity choline transporter 1 (Homo sapiens, UniProt Q9GZV3); test: CHT inhibitors, dose response, cell-based, 5-point CRC, membrane potential dye (AID 504840); format: functional
T3 sequence (Q9GZV3 whole entry): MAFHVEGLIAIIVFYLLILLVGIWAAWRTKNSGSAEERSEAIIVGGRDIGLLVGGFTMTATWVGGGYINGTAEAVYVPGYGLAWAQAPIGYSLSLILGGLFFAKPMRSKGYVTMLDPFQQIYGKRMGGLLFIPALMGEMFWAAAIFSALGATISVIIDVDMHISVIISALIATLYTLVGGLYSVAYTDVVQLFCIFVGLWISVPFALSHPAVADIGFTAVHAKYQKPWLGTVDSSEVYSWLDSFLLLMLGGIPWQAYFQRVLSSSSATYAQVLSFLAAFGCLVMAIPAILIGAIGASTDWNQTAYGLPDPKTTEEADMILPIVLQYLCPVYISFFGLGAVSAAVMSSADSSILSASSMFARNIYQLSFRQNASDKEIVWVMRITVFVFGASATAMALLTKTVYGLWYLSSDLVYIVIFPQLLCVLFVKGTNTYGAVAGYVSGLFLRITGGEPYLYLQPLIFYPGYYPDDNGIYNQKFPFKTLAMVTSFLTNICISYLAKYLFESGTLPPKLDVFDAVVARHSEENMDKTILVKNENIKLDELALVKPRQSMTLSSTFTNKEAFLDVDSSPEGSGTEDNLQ

[10] = NIH-3T3 fibroblast cytotoxicity, dose response, cytotoxicity control, cell-based, fluorescence, Alamar Blue, secondary assay (AID 2327); format: functional;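 also: NIH-3T3 mouse fibroblasts cultured with fluconazole at 8 µg/mL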
[11] = target: T4, Carboxy-terminal domain RNA polymerase II polypeptide A small phosphatase 1 (Homo sapiens, UniProt Q9GZU7); test: inhibitors of CTDSP1, concentration-response testing, biochemical assay, absorbance-based, actives from ultra-high-throughput screening (AID 540297); format: functional
T4 sequence (Q9GZU7 whole entry): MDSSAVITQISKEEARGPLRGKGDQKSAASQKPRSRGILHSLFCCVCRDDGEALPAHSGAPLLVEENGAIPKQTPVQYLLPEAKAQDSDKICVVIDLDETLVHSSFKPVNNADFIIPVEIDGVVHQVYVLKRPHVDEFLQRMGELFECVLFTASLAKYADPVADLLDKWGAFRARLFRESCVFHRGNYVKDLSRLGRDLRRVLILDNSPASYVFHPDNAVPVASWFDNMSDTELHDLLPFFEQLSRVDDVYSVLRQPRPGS

Sequence of Cytochrome P450 2C19 (P33261 whole entry): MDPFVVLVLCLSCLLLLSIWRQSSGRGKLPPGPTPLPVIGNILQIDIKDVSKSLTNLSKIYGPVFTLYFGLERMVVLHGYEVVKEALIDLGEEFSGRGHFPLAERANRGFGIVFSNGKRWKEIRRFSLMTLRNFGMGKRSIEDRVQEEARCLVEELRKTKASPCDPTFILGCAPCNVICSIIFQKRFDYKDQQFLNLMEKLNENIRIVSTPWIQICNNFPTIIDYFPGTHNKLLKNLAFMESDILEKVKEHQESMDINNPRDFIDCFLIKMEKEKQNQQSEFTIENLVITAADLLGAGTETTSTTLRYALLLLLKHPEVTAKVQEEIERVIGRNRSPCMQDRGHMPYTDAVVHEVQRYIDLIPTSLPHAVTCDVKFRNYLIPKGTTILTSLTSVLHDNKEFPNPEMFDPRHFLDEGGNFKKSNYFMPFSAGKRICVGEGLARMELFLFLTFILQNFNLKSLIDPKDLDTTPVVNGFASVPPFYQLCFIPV

SMILES: Cc1cc(OC(=O)c2ccc(Cl)cc2Cl)nc(C)n1
- AC50 (Cytochrome P450 2C19): 28.2 µM (inconclusive)
- IC50 (Coagulation factor XII): > 50 µM (inconclusive)
- AC50 (Cytochrome P450 1A2): 28.2 µM (inconclusive)

SMILES: CCOc1ccccc1CNC(=O)c1cc2oc3ccccc3c2n1CC
- IC50 (cells): 42.3 µM (active)
- CC50 (Vero [1]): > 25 µM (active)
- CC50 [2]: 13.8 µM (active)
- EC50 [3]: > 120 µM (not active)
- EC50 [4]: 14.9 µM (active)
- EC50 [5]: 16.6 µM (active)
- IC50 (Vero [6]): > 12.5 µM (active)

SMILES: O=C(C(c1ccccc1)c1ccccc1)N1CCN(c2ccccn2)CC1
- EC50 [7]: 0.0379 µM (active)

SMILES: CCOC(=O)c1nc(NNC(=O)c2ccc([N+](=O)[O-])cc2)sc1C
- EC50 [8]: 2.62 µM (active)
- AC50 (INS1): 2.7 µM (active)
- IC50 [9]: 9.91 µM (active)
- EC50 [10]: 30.9 µM (active)

SMILES: O=C1CC(c2ccccc2)(c2ccccc2)c2ccccc21
- EC50 [7]: 17.1 µM (inactive)

SMILES: O=C(O)c1ccc(Oc2ccc(S(=O)(=O)c3ccc(C(=O)O)c(C(=O)O)c3)cc2)cc1
- IC50 [11]: 6.97 µM (active)
